Experimental data reported in PubChem BioAssay (NCI).
Several values for one entry are separate records, joined by “and”; a condition that tells them apart may be missing. Identical values can stand only once.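 In this assay, cells in 96-well plates receive the compound at five concentrations for 48 hours. Endpoints are linearly interpolated between the surrounding concentrations. GI50 marks 50% less growth. TGI: concentration producing complete growth inhibition.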

Tests used:
Assay in all cases: inhibition of tumour cell growth, NCI panel, 48 h
HCT-116 colon = test system: HCT-116 colon
OVCAR-8 ovarian = test system: OVCAR-8 ovarian
SK-MEL-2 melanoma = test system: SK-MEL-2 melanoma
SNB-19 CNS = test system: SNB-19 CNS
SK-MEL-28 melanoma = test system: SK-MEL-28 melanoma
M14 melanoma = test system: M14 melanoma
CCRF-CEM leukemia = test system: CCRF-CEM leukemia
U251 CNS = test system: U251 CNS
OVCAR-4 ovarian = test system: OVCAR-4 ovarian
OVCAR-5 ovarian = test system: OVCAR-5 ovarian

SMILES	GI50 (HCT-116 colon) [µM]	TGI (HCT-116 colon)	GI50 (OVCAR-8 ovarian) [µM]	TGI (OVCAR-8 ovarian)	GI50 (SK-MEL-2 melanoma) [µM]	TGI (SK-MEL-2 melanoma) [µM]	GI50 (SNB-19 CNS) [µM]	TGI (SNB-19 CNS)	GI50 (SK-MEL-28 melanoma) [µM]	TGI (SK-MEL-28 melanoma)	GI50 (M14 melanoma) [µM]	TGI (M14 melanoma)	GI50 (CCRF-CEM leukemia) [µM]	TGI (CCRF-CEM leukemia)	GI50 (U251 CNS) [µM]	TGI (U251 CNS)	GI50 (OVCAR-4 ovarian) [µM]	TGI (OVCAR-4 ovarian)	GI50 (OVCAR-5 ovarian) [µM]	TGI (OVCAR-5 ovarian)
CC1=C2[C@@H](CC1)[C@]1(C)O[C@@](C3CCCCC3)(C[C@H]1OC(=O)CO)[C@H]2OC(=O)/C=C/c1ccccc1	7.12	21.1 µM	0.11	12.9 µM	11.5	27.9	13.1	31.4 µM	9.53	27.1 µM	8.9	26.8 µM	7.45	24.1 µM	7.72	20.5 µM	8.37	23.7 µM	15.2	37.1 µM
COc1cc2c(cc1OCCCOc1cc3c(cc1OC)C(=O)N1C[C@H](F)C[C@H]1C=N3)N=C[C@@H]1C[C@@H](F)CN1C2=O	6.4	42.8 µM	6.3	18.5 µM	2.04	5.71	14	27.7 µM	15.7	29.9 µM	3.52	16.4 µM	3.8	51.7 µM	1.96	4.46 µM	16.2	31.7 µM	13.2	25.9 µM
COc1cc(Nc2nccc(Nc3ccc4c(C)[nH]nc4c3)n2)cc(OC)c1OC	2.26	6.42 µM	3.39	10.2 µM	1.23	5.09	4.91	19.9 µM	3.28	14.4 µM	1.35	5.37 µM	6	> 25 µM	3.92	17.8 µM	4.04	> 20.7 µM	1.8	20.8 µM
CC(=O)c1c(C)[nH]c(-c2nc3ccc(N4CCN(C)CC4)cc3[nH]2)c1-c1ccc(OCC2CCOCC2)cc1	0.714	12.7 µM	1.5	27.9 µM	2	16.5	2.2	25.1 µM	1.62	17 µM	0.63	4.64 µM	0.654	> 47.1 µM	2.1	17.5 µM	0.803	32.9 µM	1.62	32.2 µM
CCN(CC)CCCC(C)Nc1c2ccc(Cl)cc2nc2ccc(OC)cc12 (configuration not stated)	1.38	5.79 µM and 4.31 µM	1.23	5.64 µM and 5.73 µM		3.17	1.96	10.8 µM and 16.2 µM	2.27	4.4 µM and 3.1 µM		3.36 µM and 3.39 µM	1.48	7.62 µM and 5.45 µM	1.89	4.1 µM and 3.39 µM		5.05 µM and 3.74 µM	2.34	6.45 µM and 4.75 µM
CCOC(=O)C(N)C[S][Sn]([CH3])([CH3])[Cl] (configuration not stated)	> 100	> 100 µM	> 100	> 100 µM	> 100	> 100	> 100	> 100 µM	> 100	> 100 µM	> 100	> 100 µM	> 55.2	> 100 µM	> 100	> 100 µM	> 100	> 100 µM	> 100	> 100 µM
CC(=O)Nc1ccc(C(=O)NN2C(=O)C(Cl)C2c2ccc(Cl)cc2)cc1 (configuration not stated)		> 100 µM		> 100 µM		> 100		59.2 µM		> 100 µM		> 100 µM		> 100 µM		> 56.7 µM		> 100 µM		> 100 µM
O=c1c(Oc2ccc(F)cc2F)cc2cnc(NC3CCOCC3)nc2n1C1CCS(=O)(=O)CC1	> 25	> 25 µM	> 25	> 25 µM	> 25	> 25	> 25	> 25 µM	> 25	> 25 µM	> 25	> 25 µM	> 25	> 25 µM	> 25	> 25 µM	> 25	> 25 µM	> 25	> 25 µM
COc1cc(OC)cc(C2CC(=O)Nc3c2c(C)nn3-c2nc3ccccc3[nH]2)c1 (configuration not stated)	1.97	4.16 µM	3.97	> 100 µM	2.42	5.88	4.13	> 100 µM	3.64	70 µM	2.46	7.27 µM	0.792	> 100 µM	2.99	9.57 µM	4.64	> 100 µM	4.15	> 100 µM
CC[C@@H]1OC2(C)CC(S(=O)(=O)c3ccccc3O)CC1O2 (some centres not stated)		> 100 µM		> 100 µM		> 100		> 100 µM		> 100 µM		> 100 µM		> 100 µM		> 100 µM		> 100 µM		> 100 µM
COc1ccc(-c2onc(-c3ccc([N+](=O)[O-])cc3)c2C2=NCCN2)cc1		> 100 µM		> 100 µM		> 100		> 100 µM		> 100 µM		> 100 µM		> 100 µM		> 100 µM		> 100 µM		> 100 µM
Cn1c([N+](=O)[O-])cnc1/C=C1\Oc2ccccc2C1=O	0.187	1.06 µM	0.186	0.677 µM	0.255	0.663	1.47	5.58 µM	0.43	3.36 µM	0.32	2.51 µM	0.168	1.38 µM	1.19	4.05 µM	2.05	7.45 µM	1.99	6.63 µM
CCOC(=O)c1cc(C#N)c(=O)n(/N=C(\C)c2ccncc2)c1O	> 100	> 100 µM	> 100	> 100 µM	> 100	> 100	> 100	> 100 µM	> 100	> 100 µM	> 100	> 100 µM	> 100	> 100 µM	> 100	> 100 µM	> 100	> 100 µM	> 100	> 100 µM
